Like-named read-outs stand apart in the source and are kept apart here.
Columns and labels:
[1] = biological target: T1, FGFR2 (Homo sapiens, UniProt P21802); assay: FGFR2 Biochemical Caliper Assay (KinEASE-TK kit); settings: 0.07 nM FGFR2; compound incubated with protein 10 min, reaction 45 min at RT; read-out: FGFR2 Cliper IC50
T1 construct: purchased Carna 08-134

[2] = biological target: T2, FGFR3 (Homo sapiens, UniProt P22607); assay: FGFR3 Biochemical Caliper Assay (KinEASE-TK kit); settings: ratio FGFR3/FGFR2 of the biochemical assay
T2 construct: purchased Carna 08-135
T2 sequence (P22607 23-806): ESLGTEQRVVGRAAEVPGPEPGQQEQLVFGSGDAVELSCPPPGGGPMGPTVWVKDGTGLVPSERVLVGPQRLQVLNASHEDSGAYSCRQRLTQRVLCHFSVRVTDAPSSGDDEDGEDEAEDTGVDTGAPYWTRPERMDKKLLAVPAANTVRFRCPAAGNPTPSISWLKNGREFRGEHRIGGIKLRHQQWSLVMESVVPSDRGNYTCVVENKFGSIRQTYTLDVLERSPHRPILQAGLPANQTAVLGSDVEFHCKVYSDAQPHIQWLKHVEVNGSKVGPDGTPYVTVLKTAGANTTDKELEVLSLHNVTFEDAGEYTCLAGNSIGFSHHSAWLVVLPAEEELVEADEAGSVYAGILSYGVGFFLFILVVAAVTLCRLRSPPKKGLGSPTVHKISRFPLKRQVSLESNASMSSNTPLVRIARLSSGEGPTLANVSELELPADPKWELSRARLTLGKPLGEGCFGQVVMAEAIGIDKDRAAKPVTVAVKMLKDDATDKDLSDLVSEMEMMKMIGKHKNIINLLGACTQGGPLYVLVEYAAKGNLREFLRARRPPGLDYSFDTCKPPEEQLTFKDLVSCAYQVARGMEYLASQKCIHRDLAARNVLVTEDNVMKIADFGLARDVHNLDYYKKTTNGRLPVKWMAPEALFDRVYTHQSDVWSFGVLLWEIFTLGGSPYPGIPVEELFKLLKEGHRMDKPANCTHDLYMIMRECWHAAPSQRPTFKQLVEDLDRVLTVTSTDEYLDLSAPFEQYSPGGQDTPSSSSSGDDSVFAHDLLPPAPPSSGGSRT
Outline: (§1)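 KinEASE-TK HTRF readout: enzyme at 0.2 nM (FGFR1, FGFR3) preincubated 10 min at RT with 10-point 3-fold compound dilutions before TK-substrate/ATP start.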

[3] = Pharmacokinetics in SD Rat; assay type: in vivo, Sprague-Dawley (SD) rat; settings: male SD rat, plasma
Procedure: Animal studies were done as approved protocols by the Institutional Animal Care and Use Committee at INVIVO Biotech Co., Ltd.
Animal information: Sprague-Dawley (SD) rat, SPF, 6-8 weeks, Male, weight 200-250 g, purchased from Beijing Vital River Lab (Beijing, People's Republic of China).
Formulation: Prepare 1.5 mg/ml and 0.6 mg/ml compound solution in […](20% HPβCD) for PO and IV respectively, dosing immediately after preparation.
Administration: PO and IV;

[4] = biological target: T3, FGFR1 (Homo sapiens, UniProt P11362); assay: FGFR1 Biochemical Caliper Assay (KinEASE-TK kit); settings: ratio FGFR1/FGFR2 of the biochemical assay
T3 construct: purchased Carna 08-133
T3 sequence (P11362 22-822): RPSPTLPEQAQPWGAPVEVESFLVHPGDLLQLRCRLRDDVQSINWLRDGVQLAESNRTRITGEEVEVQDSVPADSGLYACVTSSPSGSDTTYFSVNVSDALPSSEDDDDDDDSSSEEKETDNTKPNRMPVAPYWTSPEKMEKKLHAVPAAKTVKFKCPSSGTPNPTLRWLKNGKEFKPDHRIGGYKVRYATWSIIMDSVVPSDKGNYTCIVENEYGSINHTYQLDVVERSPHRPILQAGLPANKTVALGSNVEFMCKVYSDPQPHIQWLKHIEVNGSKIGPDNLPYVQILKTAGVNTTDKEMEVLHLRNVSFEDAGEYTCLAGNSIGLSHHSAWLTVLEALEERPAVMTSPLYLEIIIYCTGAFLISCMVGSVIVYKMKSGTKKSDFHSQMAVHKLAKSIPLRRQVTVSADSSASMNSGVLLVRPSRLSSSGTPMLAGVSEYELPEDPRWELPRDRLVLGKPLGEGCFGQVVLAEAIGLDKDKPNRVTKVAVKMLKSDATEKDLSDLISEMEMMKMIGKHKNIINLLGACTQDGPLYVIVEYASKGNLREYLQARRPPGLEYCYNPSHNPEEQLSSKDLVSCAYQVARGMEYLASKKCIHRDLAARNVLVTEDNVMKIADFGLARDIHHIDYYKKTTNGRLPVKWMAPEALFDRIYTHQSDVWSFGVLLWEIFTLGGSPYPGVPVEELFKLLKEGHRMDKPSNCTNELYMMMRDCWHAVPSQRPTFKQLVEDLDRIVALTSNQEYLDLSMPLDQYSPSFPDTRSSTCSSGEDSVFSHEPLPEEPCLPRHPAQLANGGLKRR
Outline: as §1

[5] = tested on: SNU16 cells; assay: SNU16 Cancer Cell Line Proliferation Assay (CellTiter-Glo); assay type: cell-based; settings: Homo sapiens, SNU-16, 72 h
Outline: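 SNU16 cells at 5000/well exposed to 9-point 3-fold serial compound dilutions (DMSO control) for 72 h at 37 °C, 5% CO2. Viability read by luminescence; IC50 calculated from dose-response.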

[6] = Sprague-Dawley, PO 15 mg/kg (IV used for Clearance)
[7] = Sprague-Dawley, PO 15 mg/kg (IV used for Clearance), read-out: Cmax
[8] = PO 15 mg/kg (IV used for Clearance)

T1 sequence (P21802 22-821): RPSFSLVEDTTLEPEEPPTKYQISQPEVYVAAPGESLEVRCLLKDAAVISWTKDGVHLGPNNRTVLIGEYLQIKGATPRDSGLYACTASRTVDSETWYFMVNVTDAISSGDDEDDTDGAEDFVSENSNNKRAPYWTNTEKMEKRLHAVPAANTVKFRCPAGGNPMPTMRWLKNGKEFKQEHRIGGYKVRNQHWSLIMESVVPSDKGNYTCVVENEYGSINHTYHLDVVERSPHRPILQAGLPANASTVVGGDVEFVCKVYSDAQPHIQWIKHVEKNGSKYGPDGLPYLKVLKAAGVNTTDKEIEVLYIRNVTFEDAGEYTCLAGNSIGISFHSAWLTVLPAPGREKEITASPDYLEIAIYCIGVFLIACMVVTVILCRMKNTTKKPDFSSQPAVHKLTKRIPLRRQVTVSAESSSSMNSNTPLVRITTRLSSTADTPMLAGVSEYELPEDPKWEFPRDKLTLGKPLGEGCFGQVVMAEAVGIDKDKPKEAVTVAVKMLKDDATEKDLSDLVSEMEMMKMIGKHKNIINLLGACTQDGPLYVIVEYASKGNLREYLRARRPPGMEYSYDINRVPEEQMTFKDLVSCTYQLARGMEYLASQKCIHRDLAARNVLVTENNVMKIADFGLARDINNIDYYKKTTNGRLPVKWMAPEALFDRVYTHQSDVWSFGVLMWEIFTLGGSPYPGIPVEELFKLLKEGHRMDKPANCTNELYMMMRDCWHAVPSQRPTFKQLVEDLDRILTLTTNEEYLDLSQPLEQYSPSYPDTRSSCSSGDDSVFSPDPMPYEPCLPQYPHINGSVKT

## C=C(F)C(=O)Nc1ccc(-c2nn3ncnc(N)c3c2-c2ccc(C(=O)NC3CC(F)C3)c(OC)c2)cc1 (stereo not shown) [Compound 185, 4-(4-amino-6-(4-(2-fluoroacrylamido)phe-nyl)pyrazolo[5,1-f][1,2,4]triazin-5-yl)-N-(3-fluorocyclobutyl)-2-methoxybenzamide]
[1]
  IC50: > 10 nM
[2]
  Selectivity FGFR3/FGFR2: A+ (Selectivity of FGFR3/FGFR2 greater or equal to 150)
[3]; Sprague-Dawley, IV 3 mg/kg
  clearance: 26 mL/min/kg
[3]; [6]
  AUC(0-inf): 1550 ng·h/mL
  half-life: 3 h
[3]; [7]
  Cmax: 507 ng/mL
[4]
  Selectivity FGFR1/FGFR2: A+ (Selectivity of FGFR1/FGFR2 greater or equal to 500)
[5]
  IC50: ≤ 10 nM

## C=CC(=O)Nc1ccc(-c2c(-c3ccc(C(=O)NCC(F)(F)F)c(OC)c3)c3c(N)ncc(C#N)c3n2C)cc1 [Compound 28, 4-(2-(4-acrylamidophenyl)-4-amino-7-cyano-1-methyl-1H-pyrrolo[3,2-c]pyridin-3-yl)-2-methoxy-N-(2,2,2-trifluoroethyl)benzamide]
[1]
  IC50: < 5 nM
[2]
  Selectivity FGFR3/FGFR2: B (Selectivity of FGFR3/FGFR2 less than 100 but greater than or equal to 25)
[3]; Sprague-Dawley, IV 3 mg/kg
  clearance: 19 mL/min/kg
[3]; [6]
  AUC(0-inf): 1240 ng·h/mL
  half-life: 0.98 h
[3]; [7]
  Cmax: 509 ng/mL
[4]
  Selectivity FGFR1/FGFR2: A (Selectivity of FGFR1/FGFR2 less than 500 but greater than or equal to 300)
[5]
  IC50: ≤ 10 nM

## C=C(F)C(=O)Nc1ccc(-c2nn3ncnc(N)c3c2-c2ccc(C(=O)NC3CC3(F)F)c(OC)c2)cc1 (stereo not shown) [Compound 193, 4-(4-amino-6-(4-(2-fluoroacrylamido)phe-nyl)pyrazolo[5,1-f][1,2,4]triazin-5-yl)-N-(2,2-difluorocyclopropyl)-2-methoxybenzamide]
[1]
  IC50: 5 to 10 nM
[2]
  Selectivity FGFR3/FGFR2: A+ (Selectivity of FGFR3/FGFR2 greater or equal to 150)
[3]; Sprague-Dawley, IV 3 mg/kg
  clearance: 8.4 mL/min/kg
[3]; [6]
  AUC(0-inf): 4570 ng·h/mL
  half-life: 3.6 h
[3]; [7]
  Cmax: 1390 ng/mL
[4]
  Selectivity FGFR1/FGFR2: A+ (Selectivity of FGFR1/FGFR2 greater or equal to 500)
[5]
  IC50: ≤ 10 nM

## C=C(F)C(=O)Nc1ccc(-c2nn3ncnc(N)c3c2-c2ccc(C(=O)NC3(C(F)(F)F)CC3)c(OC)c2)cc1 [Compound 308]
[1]
  IC50: > 10 nM
[2]
  Selectivity FGFR3/FGFR2: A (Selectivity of FGFR3/FGFR2 less than 150 but greater than or equal to 100)
[3]; Sprague-Dawley, IV 3 mg/kg
  clearance: 17 mL/min/kg
[3]; [6]
  AUC(0-inf): 3760 ng·h/mL
  half-life: 2.4 h
[3]; [7]
  Cmax: 1180 ng/mL
[4]
  Selectivity FGFR1/FGFR2: C (Selectivity of FGFR1/FGFR2 less than 200 but greater than or equal to 100)
[5]
  IC50: ≤ 10 nM

## C=C(F)C(=O)Nc1ccc(-c2nn3ncnc(N)c3c2-c2ccc(C(=O)NCCC(F)(F)F)c(OC)c2)cc1 [Compound 310]
[3]; Sprague-Dawley, IV 3 mg/kg
  clearance: 16 mL/min/kg
[3]; [6]
  AUC(0-inf): 2970 ng·h/mL
  half-life: 1.1 h
[3]; [7]
  Cmax: 1190 ng/mL

## C=C(C)C(=O)Nc1ccc(-c2c(-c3ccc(Oc4nccc(C)n4)c(F)c3)c3c(N)ncnc3n2C)cc1 [Compound 0, N-(4-(4-amino-5-(3-fluoro-4-((4-methylpyrimidin-2-yl)oxy)phenyl)-7-methyl-7H-pyrrolo[2,3-d]pyrimidin-6-yl)phenyl)methacrylamide, reference compound]
[3]; Sprague-Dawley, IV 3 mg/kg
  clearance: 49 mL/min/kg
[3]; [6]
  AUC(0-inf): 614 ng·h/mL
  half-life: 1.5 h
[3]; [7]
  Cmax: 244 ng/mL
[5]
  IC50: ≤ 10 nM

## C=C(F)C(=O)Nc1ccc(-c2nn3ncnc(N)c3c2-c2ccc(C(=O)NCC(F)(F)F)c(OC)c2)cc1 [Compound 71, 4-(4-amino-6-(4-(2-fluoroacrylamido)phenyl)pyrazolo[5,1-f][1,2,4]triazin-5-yl)-2-methoxy-N-(2,2,2-trifluoroethyl)benzamide]
[3]; Sprague-Dawley, IV 3 mg/kg
  clearance: 18 mL/min/kg
[3]; [6]
  AUC(0-inf): 3230 ng·h/mL
  half-life: 1.8 h
[3]; [7]
  Cmax: 1300 ng/mL

## C=C(F)C(=O)Nc1ccc(-c2nn3ncnc(N)c3c2-c2ccc(C(=O)NC34CC(C3)C4)c(OC)c2)cc1 [Compound 270, 4-(4-amino-6-(4-(2-fluoroacrylamido)phe-nyl)pyrazolo[5,1-f][1,2,4]triazin-5-yl)-N-(bicyclo[1.1.1]pentan-1-yl)-2-methoxybenzamide]
[3]; IV 3 mg/kg
  Cl: 18 mL/min/kg
[3]; [8]
  AUC0-∞: 3384 ng·h/mL
  Cmax: 978 ng/mL
  T1/2: 2 h
